Test results taken from patent publication US6555375B1, “Methods for somatic embryo formation and plant regeneration of Beta vulgaris” (priority 2000, dated 2003).

System: embryogenic tissue masses of sugar beet
Experiment: Repetitive embryogenic culture: optimization of proliferation medium
Assay type: cell-based, Beta vulgaris
Experimental: These embedded tissues were manually isolated, separated and transferred into liquid medium (MS medium+BAP 0.2 mg/L). The cultures were maintained at constant agitation (100 rpm) in the dark with biweekly changes of the medium. […] Clumps of white embryogenic tissue masses were divided and transferred to fresh medium for further proliferation. […] Part of these tissues was used for the optimization of culture medium.
The optimization of proliferation medium was conducted through several stages. Each stage lasted for two weeks.

[1] = II. MSE, sucrose 6%, glutamine 2 mg/L, pH 5.7, phytohormone 0.1 mg/L
[2] = III. MSE, sucrose 6%, BAP 0.1 mg/l, pH 5.7, amino acid 2 mg/L
[3] = III. MSE, sucrose 6%, BAP 0.1 mg/l, pH 5.7, amino acid 200 mg/L
[4] = I. MSE, BAP 0.2 mg/L, glutamine 2 mg/L, pH 5.7, carbon source 6%

C/C(=C\CNc1ncnc2[nH]cnc12)CO [Zea, zeatin]
Effect of media on repetitive embryogenic culture (description) [1]: Slowly growing, mostly meristematic, vitrified tissues

NC(=O)CC[C@H](N)C(=O)O [Glutamine, glutamine]
colour of vitrified tissues: caused bleaching of vitrified tissues | Effect of media on repetitive embryogenic culture (description) [2]: Slowly growing, dark yellow tissues | Effect of media on repetitive embryogenic culture (description) [3]: Slowly growing, dark yellow tissues

NCC(=O)O [Glycine, glycine]
Effect of media on repetitive embryogenic culture (description) [2]: Tissues are light yellow | white embryos, share of tissues [2]: 30% | Effect of media on repetitive embryogenic culture (description) [3]: Slowly growing, mostly meristematic, vitrified tissues

O=C(O)COc1ccc(Cl)cc1Cl [2,4D, 2,4-dichlorophenoxyacetic acid]
colour of vitrified tissues: caused bleaching of vitrified tissues | Effect of media on repetitive embryogenic culture (description) (IV. MSE, sucrose 6%, glycine 2 mg/L, pH 5.7, phytohormone 0.1 mg/L): Pale yellow tissues with white embryos; red pigmentation is repressed | effect on embryo proliferation (presence in the medium): negative effect

OC[C@@H](O)[C@@H](O)[C@H](O)[C@H](O)CO [Mannitol, mannitol]
Effect of media on repetitive embryogenic culture (description) [4]: No growth, total necrosis

c1coc(CNc2ncnc3[nH]cnc23)c1 [Kin, kinetin]
Effect of media on repetitive embryogenic culture (description) [1]: Slowly growing, mostly meristematic, vitrified tissues

OC[C@H]1O[C@@](CO)(O[C@H]2O[C@H](CO)[C@@H](O)[C@H](O)[C@H]2O)[C@@H](O)[C@@H]1O [Sucrose, sucrose]
optimization of proliferation medium by modification of sucrose content: did not lead to any further improvement | Effect of media on repetitive embryogenic culture (description) [4]: A lot of repetitive white embryos | Effect of media on repetitive embryogenic culture (description) (V. MSE, BAP 0.1 mg/L, glycine 2 mg/L, pH 5.7, sucrose at 3%): Necrosis of all tissues | Effect of media on repetitive embryogenic culture (description) (V. MSE, BAP 0.1 mg/L, glycine 2 mg/L, pH 5.7, sucrose at 6%): A lot of repetitive white embryos | Effect of media on repetitive embryogenic culture (description) (V. MSE, BAP 0.1 mg/L, glycine 2 mg/L, pH 5.7, sucrose at 8%): Growth is inhibited | Effect of media on repetitive embryogenic culture (description) (V. MSE, BAP 0.1 mg/L, glycine 2 mg/L, pH 5.7, sucrose at 10%): Growth is inhibited | Effect of media on repetitive embryogenic culture (description) (V. MSE, BAP 0.1 mg/L, glycine 2 mg/L, pH 5.7, sucrose at 12%): Growth is inhibited

OC[C@@H](O)[C@@H](O)[C@H](O)[C@@H](O)CO [Sorbitol, sorbitol]
Effect of media on repetitive embryogenic culture (description) [4]: No growth, total necrosis
